# How the values were obtained:
# Type in all cases: physicochemical
# [1] = critical micelle formation concentration (CMC) by tensiometry
# Procedure: In aqueous systems, these amphiphilic molecules show the properties that are characteristic of standard surfactants (such as, e.g., sodium dodecylsulfate, SDS). They thus reduce the surface tension of water. By tensiometry, the so-called CMC (critical micelle formation concentration in mol/l) can be determined. In this respect, the surface tension is determined based on the concentration of the substance to be measured. The CMC can be calculated from the plot of the surface tension function (c) that is obtained. The critical micelle formation concentration of the compounds according to the invention must be <10^−3 mol/l, preferably <10^−4 mol/l.
# (§1) Both the determination of the CMC and the photon correlation spectroscopy are described in H.-D. Dörfler, “Grenzflächen- und Kolloidchemie [Interface and Colloid Chemistry],” Weinheim, New York, Basel, Cambridge, Tokyo, VSH 1994.
# [2] = hydrodynamic micelle diameter (2 Rh) by photon correlation spectroscopy (PCS)
# Source text: The amphiphilic compounds according to the invention are combined in solution and are present as aggregates. The size (2 Rh) of such aggregates (e.g., micelles, rods, wafers, etc.) can be determined with the aid of […] (PCS).
# As a second criterion, the hydrodynamic micelle diameter 2 Rh, which must be >1 nm, is therefore used. Those perfluoroalkyl-containing metal complexes according to the invention whose 2 RH is ≧3, quite especially preferably >4 nm, are especially suitable.
# as §1
# [3] = proton relaxivity in plasma (R^1), Minispec P 20; details: 40° C., 0.47 tesla, bovine plasma
# Procedure: As a third criterion, the proton-relaxivity in plasma (R^1) at 40° C. and a field strength of 0.47 tesla is used. The relaxivity, which is indicated in [l/mmol·s], is the quantitative measurement for the shortening of relaxation time T^1 of the protons. For the purpose according to the invention, the relaxivity must be as high as possible and >10 l/mmol·s, preferably >13 l/mmol·s, especially preferably >15 l/mmol·s.
# Relaxivity R^1 [l/mmol·s] of the MR-contrast media according to the invention was determined with the Minispec P 20 device of the Bruker Company. The measurements were taken at 40° C. and a field strength of 0.47 tesla. Eight measuring points were recorded by each T1-sequence: 180°-TI-90°, inversion recovery. As a medium, bovine plasma of the Kraeber Company was used. The contrast medium concentrations [mmol/l] in the batches were between 0.30 and 1.16.
Structure (SMILES),CMC (critical micelle formation concentration) [1],2 Rh (hydrodynamic micelle diameter) [2],R^1 Plasma (relaxivity) [3]
"O=C([O-])CN1CCN(CC(=O)[O-])CCN(CC(O)CNC(=O)COCCC(F)(F)C(F)(F)C(F)(F)C(F)(F)C(F)(F)C(F)(F)C(F)(F)C(F)(F)F)CCN(CC(=O)[O-])CC1.[Gd+3] (stereo not drawn) [metal complex II, Gadolinium complex of 10-[2-hydroxy-4-aza-5-oxo-7-oxa-10,10,11,11,12,12,13,13,14,14,15,15,16,16,17,17-heptadecafluoroheptadecyl]-1,4,7-tris (carboxymethyl)-1,4,7,10-tetraazacyclododecane]",2.3e-05 mol/L,14 nm,33 mmol⁻¹ s⁻¹
"CCN(CC(=O)NCC(O)CN1CCN(CC(=O)[O-])CCN(CC(=O)[O-])CCN(CC(=O)[O-])CC1)S(=O)(=O)C(F)(F)C(F)(F)C(F)(F)C(F)(F)C(F)(F)C(F)(F)C(F)(F)C(F)(F)F.[Gd+3] (stereo not drawn) [metal complex IV, Gadolinium complex of 10-[2-hydroxy-4-aza-5-oxo-7-aza-7-(perfluorooctyl-sulfonyl)-nonyl]-1,4,7-tris (carboxymethyl)-1,4,7,10-tetraazacyclododecane]",1e-06 mol/L,31.5 nm,29.7 mmol⁻¹ s⁻¹
CC(C(=O)NCC(=O)NCCOCCOCCOCCCNC(=O)COCCC(F)(F)C(F)(F)C(F)(F)C(F)(F)C(F)(F)C(F)(F)C(F)(F)C(F)(F)F)N1CCN(CC(=O)[O-])CCN(CC(=O)[O-])CCN(CC(=O)[O-])CC1.[Gd+3] (stereo not drawn) [metal complex IX],2.65e-06 mol/L,6.0 nm,13.3 mmol⁻¹ s⁻¹
"O=C([O-])CN1CCN(CC(=O)[O-])CCN(CC(O)COCCC(F)(F)C(F)(F)C(F)(F)C(F)(F)C(F)(F)C(F)(F)C(F)(F)C(F)(F)F)CCN(CC(=O)[O-])CC1.[Gd+3] (stereo not drawn) [metal complex VI, Gadolinium complex of 10-[2-hydroxy-4-oxa-1H,1H,2H,2H,3H,3H,5H,5H,6H,6H-perfluorotetradecyl]-1,4,7-tris(carboxymethyl)-1,4,7,10-tetraazacyclododecane]",1.44e-05 mol/L,3.2 nm,27.5 mmol⁻¹ s⁻¹
CC(C(=O)NCC(=O)N(CCOCCO)CCOCCC(F)(F)C(F)(F)C(F)(F)C(F)(F)C(F)(F)C(F)(F)C(F)(F)C(F)(F)F)N1CCN(CC(=O)[O-])CCN(CC(=O)[O-])CCN(CC(=O)[O-])CC1.[Gd+3] (stereo not drawn) [metal complex VIII],2.92e-05 mol/L,25 nm,21.2 mmol⁻¹ s⁻¹
COCCOCCOCCOCCOCCN(CCOCCC(F)(F)C(F)(F)C(F)(F)C(F)(F)C(F)(F)C(F)(F)C(F)(F)C(F)(F)F)C(=O)CNC(=O)C(C)N1CCN(CC(=O)[O-])CCN(CC(=O)[O-])CCN(CC(=O)[O-])CC1.[Gd+3] (stereo not drawn) [metal complex VII],5.2e-05 mol/L,3.0 nm,30.3 mmol⁻¹ s⁻¹
"O=C([O-])CN1CCN(CC(=O)[O-])CCN(CC(O)CNC(=O)COCCC(F)(F)C(F)(F)C(F)(F)C(F)(F)C(F)(F)C(F)(F)C(F)(F)C(F)(F)C(F)(F)C(F)(F)F)CCN(CC(=O)[O-])CC1.[Gd+3] (stereo not drawn) [metal complex XI, Gadolinium complex of 10-[2-hydroxy-4-aza-5-oxo-7-oxa-10,10,11,11,12,12,13,13,14,14,15,15,16,16,17,17,18,18,19,19-henicosafluoro-nonadecyl]-1,4,7-tris(carboxymethyl)-1,4,7,10-tetraazacyclododecane]",2.88e-06 mol/L,35.5 nm,24.8 mmol⁻¹ s⁻¹
"CCN(CCCCCC(=O)NCC(O)CN1CCN(CC(=O)[O-])CCN(CC(=O)[O-])CCN(CC(=O)[O-])CC1)S(=O)(=O)C(F)(F)C(F)(F)C(F)(F)C(F)(F)C(F)(F)C(F)(F)C(F)(F)C(F)(F)F.[Gd+3] (stereo not drawn) [metal complex XII, Gadolinium complex of 10-[2-hydroxy-4-aza-5-oxo-11-aza-11-(perfluorooctyl-sulfonyl)-tridecyl]-1,4,7-tris(carboxymethyl) 1,4,7,10-tetraazacyclododecane]",1.07e-05 mol/L,7.4 nm,30.5 mmol⁻¹ s⁻¹
"O=C([O-])CN1CCN(CC(=O)[O-])CCN(CC(O)CNC(=O)CN(Cc2ccccc2)S(=O)(=O)C(F)(F)C(F)(F)C(F)(F)C(F)(F)C(F)(F)C(F)(F)C(F)(F)C(F)(F)F)CCN(CC(=O)[O-])CC1.[Gd+3] (stereo not drawn) [metal complex XIII, Gadolinium complex of 10-[2-hydroxy-4-aza-5-oxo-7-aza-7-(perfluorooctyl-sulfonyl)-8-phenyl-octyl]-1-4-7-tris(carboxymethyl)-1,4,7,10-tetraazacyclododecane]",3.25e-06 mol/L,4.3 nm,34.0 mmol⁻¹ s⁻¹
CC(C(=O)NCC(=O)NCCCC[C@H](NC(=O)CNC(=O)C(C)N1CCN(CC(=O)[O-])CCN(CC(=O)[O-])CCN(CC(=O)[O-])CC1)C(=O)N1CCN(S(=O)(=O)C(F)(F)C(F)(F)C(F)(F)C(F)(F)C(F)(F)C(F)(F)C(F)(F)C(F)(F)F)CC1)N1CCN(CC(=O)[O-])CCN(CC(=O)[O-])CCN(CC(=O)[O-])CC1.[Gd+3].[Gd+3] (stereo partly drawn) [metal complex XVI],3.9e-05 mol/L,4.9 nm,21.3 mmol⁻¹ s⁻¹

# From patent publication US6818203B2, “Use of perfluoroalkyl-containing metal complexes as contrast media in MR-imaging for visualization of plaque, tumors and necroses” (Schering Aktiengesellschaft, priority 2000, dated 2004)
